According to publication PMC9308409 (Communications Biology, 2022):
“And” between values parts separate entries of the source, which are not always exact repeats. Identical values can stand only once. Like-named read-outs stand apart in the source and are kept apart here.

Tests used:
TPCs = conditions: read-out: IC50 inhibition of TPCs; cited from earlier work
lysosomal TPC2 = conditions: cited from earlier work
[1] = target: T1, human TPC2^PM Y312A mutant (Homo sapiens, UniProt Q8NHX9, L11A/L12A/Y312A); assay: Inside-out patch-clamp, PI(3,5)P2-activated TPC2^PM Y312A; type: cell-based; conditions: for current, trace of PI103 on Y312A of TPC2 channel: successive trace points
T1 construct: FLAG (C); V5 (C); expressed in transfected cells; host or cells: HEK293
Procedure: (§1) After 24 h of transfection, human TPC1^PM or TPC2^PM channel currents were acquired at room temperature using an EPC-10 amplifier and PatchMaster software (HEKA) or a MultiClamp 700B amplifier and pCLAMP software (Axon Instruments). […] Patch pipettes were polished with a resistance of 2–3 MΩ for recording. Similarly, for whole-cell recording to allow inhibitor application on the extracellular side, the K^+-based solution was used as the pipette solution, and the Na^+-based solution was used in the bath.

[2] = target: T2, human TPC2^PM H699A mutant (Homo sapiens, UniProt Q8NHX9, H699A/L11A/L12A); assay: Inside-out patch-clamp, PI(3,5)P2-activated TPC2^PM H699A; type: cell-based; conditions: for current, trace of PI103 on H699A of TPC2 channel: voltage -1.20E+02, successive trace points
T2 construct: FLAG (C); V5 (C); expressed in transfected cells; host or cells: HEK293
Procedure: as §1

[3] = target: T3, human TPC2 L11A/L12A (TPC2^PM) (Homo sapiens, UniProt Q8NHX9, L11A/L12A); assay: Inside-out patch-clamp of PI(3,5)P2-induced TPC2^PM Na+ currents (WT pore); type: cell-based; conditions: for current, trace of PI103 on WT TPC2 channel: voltage -1.20E+02, successive trace points
T3 construct: FLAG (C); V5 (C); expressed in transfected cells; host or cells: HEK293
Procedure: as §1
Dose curves were fitted by the Hill logistic equation. τon and τoff were acquired from singe exponential fitting.

[4] = target: T4, human TPC2^PM Y312A/H699A mutant (Homo sapiens, UniProt Q8NHX9, H699A/L11A/L12A/Y312A); assay: Inside-out patch-clamp, PI(3,5)P2-activated TPC2^PM Y312A/H699A; type: cell-based; conditions: 0.3 μM PI(3,5)P2 alone, trace, voltage -1.20E+02
T4 construct: FLAG (C); V5 (C); expressed in transfected cells; host or cells: HEK293
Procedure: as §1

human TPC2 = target: T5, human TPC2 (Homo sapiens, UniProt Q8NHX9); assay: Imaging of NAADP-evoked Ca2+ elevation (GCaMP6f) after microinjection in TPC2-expressing HEK293 cells; type: cell-based
T5 construct: FLAG (C); V5 (C); expressed in transfected cells; host or cells: HEK293
Procedure: Ca^2+ imaging analysis of NAADP-evoked Ca^2+ elevation was performed as we recently described. Briefly, cells were co-transfected with cDNA constructs of human TPC2 and the Ca^2+ reporter GCaMP6f, and the transfected cells were identified by GCaMP6f fluorescence. Fluorescence was monitored with an Axio Observer A1 microscope equipped with an AxioCam MRm digital camera and ZEN Blue 2 software containing a physiology module (Carl Zeiss) at a sampling frequency of 2 Hz. Cell injection was performed with a FemtoJet microinjector (Eppendorf). The pipette solution contained 110 mM KCl, 10 mM NaCl, and 20 mM Hepes (pH 7.2) supplemented with Dextran (10,000 MW)-Texas Red (0.3 mg/ml) and NAADP (100 nM) or vehicle. When needed, 10 µM YM201626 or apilimod at was added to the pipette solution. […] To minimize interference by contaminated Ca^2+, the pipette solution was always treated with Chelex 100 resin (#C709, Sigma-Aldrich) immediately before use. Microinjection (0.5 s at 150 hPa) was made ~30 s after pipette tip insertion into cells. […] Successful injection was verified by fluorescence of the co-injected Texas Red. Elevation in intracellular Ca^2+ concentration was reported by a change in fluorescence intensity measured as ΔF/F0, calculated from NAADP microinjection-induced maximal changes in fluorescence (ΔF at the peak) divided by the fluorescence immediately before microinjection (F0).

[5] = target: T3, human TPC2 L11A/L12A (TPC2^PM); assay: Whole cell patch-clamp of NAADP (microinjection)-induced TPC2^PM currents in HEK293 cells; type: cell-based; parameters: averaged NAADP-induced whole cell current trace: unit not given here
Procedure: Whole cell patch-clamp recording of the NAADP (microinjection)-induced TPC2^PM currents was performed as we reported. […] The cells were visualized under an infrared differential interference contrast optics microscope (Zeiss). Currents were recorded by voltage ramps from −120 to +120 mV over 400 ms for every 2 s with a holding potential of 0 mV. After a whole cell recording configuration was achieved, an injection pipette was inserted into the cell and the baseline of the whole cell current was recorded. Microinjection of NAADP was performed as above in imaging analysis of NAADP-evoked Ca^2+ release. The NAADP-induced currents were obtained by subtraction of the baseline from NAADP injection-induced currents.

Ebola virus = conditions: read-out: IC50 virus entry; cited from earlier work

T2 sequence (Q8NHX9 whole entry L11A/L12A/H699A): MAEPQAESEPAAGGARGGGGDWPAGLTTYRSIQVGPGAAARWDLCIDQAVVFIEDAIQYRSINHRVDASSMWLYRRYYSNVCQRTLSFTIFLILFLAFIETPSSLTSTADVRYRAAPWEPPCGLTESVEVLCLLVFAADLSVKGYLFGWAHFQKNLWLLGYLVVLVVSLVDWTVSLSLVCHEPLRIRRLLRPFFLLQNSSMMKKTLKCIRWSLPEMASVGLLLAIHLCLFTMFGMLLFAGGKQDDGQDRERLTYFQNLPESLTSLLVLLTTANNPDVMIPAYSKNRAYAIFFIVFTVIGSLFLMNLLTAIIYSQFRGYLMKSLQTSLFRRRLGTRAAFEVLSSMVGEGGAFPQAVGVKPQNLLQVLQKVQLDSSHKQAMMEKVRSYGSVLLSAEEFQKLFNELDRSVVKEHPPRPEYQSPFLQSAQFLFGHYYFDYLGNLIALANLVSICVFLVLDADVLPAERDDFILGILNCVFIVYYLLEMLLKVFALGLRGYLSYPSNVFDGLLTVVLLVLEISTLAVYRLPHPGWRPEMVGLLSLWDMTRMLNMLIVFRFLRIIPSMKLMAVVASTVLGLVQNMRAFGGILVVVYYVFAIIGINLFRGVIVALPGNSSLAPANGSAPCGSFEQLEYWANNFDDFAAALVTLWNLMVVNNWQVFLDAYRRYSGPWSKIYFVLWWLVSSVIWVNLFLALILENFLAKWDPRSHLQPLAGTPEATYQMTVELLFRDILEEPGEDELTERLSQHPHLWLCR
T5 sequence (Q8NHX9 whole entry): as the sequence (Q8NHX9 whole entry L11A/L12A/H699A) above, with A11L, A12L, A699H counted along it
T3 sequence (Q8NHX9 whole entry L11A/L12A): as the sequence (Q8NHX9 whole entry L11A/L12A/H699A) above, with A699H counted along it
T1 sequence (Q8NHX9 whole entry L11A/L12A/Y312A): as the sequence (Q8NHX9 whole entry L11A/L12A/H699A) above, with Y312A, A699H counted along it
T4 sequence (Q8NHX9 whole entry L11A/L12A/Y312A/H699A): as the sequence (Q8NHX9 whole entry L11A/L12A/H699A) above, with Y312A counted along it

O=C1C[C@@H](c2ccc(O)cc2)Oc2cc(O)cc(O)c21 [Naringenin]
IC50 (TPCs): ~200 µM

COc1ccc([C@H]2N[C@H](C(=O)O)Cc3c2[nH]c2ccccc32)cc1CN1CCN(c2ccccc2F)CC1 [Ned-19]
inhibition of lysosomal TPC2 activity (lysosomal TPC2; 200 µM): ~ 75%

Oc1cccc(-c2nc(N3CCOCC3)c3oc4ncccc4c3n2)c1 [PI103]
current, trace of PI103 on Y312A of TPC2 channel ([1]; 0.3 μM PI(3,5)P2 + 2.0 μM PI103, voltage -1.20E+02): -3.13E-09 A | current, trace of PI103 on Y312A of TPC2 channel ([1]; 0.3 μM PI(3,5)P2 + 5.0 μM PI103, voltage -1.20E+02): -1.87E-09 A | current, trace of PI103 on Y312A of TPC2 channel ([1]; 0.3 μM PI(3,5)P2 + 20.0 μM PI103, voltage -1.20E+02): -1.61E-09 A | current, trace of PI103 on H699A of TPC2 channel ([2]; 0.3 μM PI(3,5)P2 + 0.4 μM PI103): -4.01E-09 A | current, trace of PI103 on H699A of TPC2 channel ([2]; 0.3 μM PI(3,5)P2 + 20.0 μM PI103): -3.66E-09 A | current, trace of PI103 on H699A of TPC2 channel ([2]; 0.3 μM PI(3,5)P2 + 50.0 μM PI103): -3.37E-09 A | current, trace of PI103 on WT TPC2 channel ([3]; 0.3 μM PI(3,5)P2 + 0.2 μM PI103): -1.97E-09 A | current, trace of PI103 on WT TPC2 channel ([3]; 0.3 μM PI(3,5)P2 + 0.5 μM PI103): -1.21E-09 A

CCCCCCCC(=O)OC[C@H](COP(=O)(O)OC1[C@H](O)[C@H](OP(=O)(O)O)C(O)[C@H](OP(=O)(O)O)[C@H]1O)OC(=O)CCCCCCC (some centres unmarked) [PI(3,5)P2, phosphatidylinositol 3,5-bisphosphate]
current(A) ([1]; Y312A TPC2, 0.3 μM PI(3,5)P2 alone, trace, voltage -1.20E+02): -2.83E-09 A | deactivation rate τoff on wash-off ([3]; 1.0 μM PI(3,5)P2, n = 7): 20.8 ± 0.9 s | activation rate τon of human TPC2 channels ([3]; 1.0 μM PI(3,5)P2 from cytosolic side, n = 8): 9.0 ± 0.5 s | kinetics (Tau) of TPC2PM currents, mean value ([3]; PI(3,5)P2 wash on): 9.035 | Tau of TPC2PM currents, PI(3,5)P2 wash on after Y201636, single cells ([3]; individual cells 1-5, Fig 3D): 48.718 and 63.746 and 69.896 and 56.91 and 53.316 | Tau of TPC2PM currents, PI(3,5)P2 wash off, single cells ([3]; individual cells 1-7, Fig 3D): 21.372 and 18.6234 and 21.6704 and 18.1982 and 20.854 and 19.4692 and 25.31 | Tau of TPC2PM currents, PI(3,5)P2 wash on, single cells ([3]; individual cells 1-8, Fig 3D): 8.4824 and 9.9858 and 7.6828 and 7.7804 and 8.8206 and 10.9364 and 11.3272 and 7.265 | Averaged kinetics (Tau) of TPC2PM currents, PI(3,5)P2 wash on after YM201636, mean value ([3]; mean, 5 cells, Fig 3D): 11.9903 | Averaged kinetics (Tau) of TPC2PM currents, PI(3,5)P2 wash off, mean value ([3]; mean, 7 cells, Fig 3D): 20.7853 | Averaged kinetics (Tau) of TPC2PM currents, PI(3,5)P2 wash on, mean value ([3]; mean, 8 cells, Fig 3D): 9.035 | current(A) [4]: -4.54E-09 A

Oc1cccc(-c2nc(N3CCOCC3)c3oc4ncccc4c3n2)c1 [PI-103]
IC50 [1]: 13.9 µM | channel's blockade in H699A mutant ([2]; 0.3 μM PI(3,5)P2, inside-out): largely abolished | fold higher IC50 than that of YM201636 ([3]; WT TPC2^PM): 4 fold | IC50 ([3]; read-out: IC50 for inhibition of PI(3,5)P2-induced human TPC2 channel Na+ currents): 0.64 µM

COc1cc2c(cc1Oc1ccccc1)C(Cc1ccc(Oc3ccccc3)cc1)N(C)CC2 (centres unmarked) [SG-094]
inhibition of (lysosomal) TPC2 currents (lysosomal TPC2; 10 µM): ~ 75%

Cc1cccc(/C=N/Nc2cc(N3CCOCC3)nc(OCCc3ccccn3)n2)c1 [apilimod]
reduction of the NAADP-evoked Ca2+ elevation (human TPC2; 1 µM microinjected together with NAADP (100 nM), HEK293 cells): largely unaffected | NAADP-evoked calcium elevation (change in Ca2+ indicator fluorescence), individual cells (human TPC2; Fig 1B source data, 1 µM microinjected with NAADP): 2.593 and 3.9665 and 6.13 and 1.0864 and 2.248 and 3.0742 | inhibition of the NAADP-induced TPC2^PM currents ([5]; 1 µM in bath solution ~10 min, whole cell, −120 mV): little effect | averaged NAADP-induced whole cell current trace ([5]; 1 uM, Voltage -119.76): -0.4148 | averaged NAADP-induced whole cell current trace ([5]; 1 uM, Voltage -119.82): -0.4172 | averaged NAADP-induced whole cell current trace ([5]; 1 uM, Voltage -119.88): -0.4198 | averaged NAADP-induced whole cell current trace ([5]; 1 uM, Voltage -119.94): -0.4267 | averaged NAADP-induced whole cell current trace ([5]; 1 uM, Voltage -120, Fig 1C source data): -0.4289 | I, current density of NAADP-induced whole cell TPC2^PM currents, individual cells ([5]; 1 uM, −120 mV, Fig 1D source data): 94.6904 pA/pF and 47.5492 pA/pF and 12.9726 pA/pF and 46.7536 pA/pF and 31.7662 pA/pF and 23.2025 pA/pF

COc1ccc2cc1Oc1ccc(cc1)C[C@H]1c3cc(c(OC)cc3CCN1C)Oc1c(OC)c(OC)cc3c1[C@H](C2)N(C)CC3 [tetrandrine]
inhibition of (lysosomal) TPC2 currents (lysosomal TPC2; 0.5 µM): 60% | inhibition of (lysosomal) TPC2 currents (lysosomal TPC2; 10 µM): 54% and 50–60% | IC50 (Ebola virus): 0.055 µM
